Test results: publication PMC411064 (BMC Medicine, 2004)
Several values for one entry are separate records, joined by “and”; a condition that tells them apart may be missing. Identical values can stand only once. Like-named read-outs stand apart in the source and are kept apart here. Marks after values point to notes of the source that are not given here.

Assays:
[1] = tested on: Caco-2 cells; assay: CPT directional transport across Caco-2 cell monolayers; format: in vitro ADME, human
[2] = CPT directional transport across MDCK II/wt cell monolayers; format: in vitro ADME, dog; details: dog, MDCK, pH 7.4
[3] = tested on: MDCK II/wt cells; assay: as above; format: in vitro ADME, dog; details: MDCK II/wt
[4] = format: in vitro ADME; details: rat intestinal and liver s9 fractions and microsomes; data not shown
[5] = target: human multidrug resistance protein 2 (MRP2) (ABCC2) (Homo sapiens, UniProt Q92887); assay: CPT directional transport across MDCK II/MRP2 cell monolayers; format: in vitro ADME
[6] = target: human P-glycoprotein (PGP) (ABCB1) (Homo sapiens, UniProt P08183); assay: CPT directional transport across MDCK II/PGP cell monolayers; format: in vitro ADME
[7] = cited from earlier work; for observed variability in the area under the curve: oral
[8] = tested on: CC[C@@]1(O)C(=O)OCc2c1cc1n(c2=O)Cc2cc3ccccc3nc2-1; assay: CPT directional transport across MDCK II/PGP cell monolayers; format: in vitro ADME, human; details: other: MDCK II/PGP, 37.0 °C
[9] = tested on: Caco-2 cells; assay: Inhibition of CPT efflux; format: in vitro ADME, human; details: for decrease of CPT secretory permeability in the presence of inhibitor: BL to AP
[10] = read-out: Km value of etoposide; estimated in the authors' laboratory; cited from earlier work
[11] = substrate: CC[C@@]1(O)C(=O)OCc2c1cc1n(c2=O)Cc2cc3ccccc3nc2-1; assay: CPT directional transport across MDCK II/MRP2 cell monolayers; format: in vitro ADME, human; details: other: MDCK II/MRP2, 37.0 °C
[12] = orally administered, clinical evaluation

Chain of human P-glycoprotein (PGP) (ABCB1) (P08183 whole entry): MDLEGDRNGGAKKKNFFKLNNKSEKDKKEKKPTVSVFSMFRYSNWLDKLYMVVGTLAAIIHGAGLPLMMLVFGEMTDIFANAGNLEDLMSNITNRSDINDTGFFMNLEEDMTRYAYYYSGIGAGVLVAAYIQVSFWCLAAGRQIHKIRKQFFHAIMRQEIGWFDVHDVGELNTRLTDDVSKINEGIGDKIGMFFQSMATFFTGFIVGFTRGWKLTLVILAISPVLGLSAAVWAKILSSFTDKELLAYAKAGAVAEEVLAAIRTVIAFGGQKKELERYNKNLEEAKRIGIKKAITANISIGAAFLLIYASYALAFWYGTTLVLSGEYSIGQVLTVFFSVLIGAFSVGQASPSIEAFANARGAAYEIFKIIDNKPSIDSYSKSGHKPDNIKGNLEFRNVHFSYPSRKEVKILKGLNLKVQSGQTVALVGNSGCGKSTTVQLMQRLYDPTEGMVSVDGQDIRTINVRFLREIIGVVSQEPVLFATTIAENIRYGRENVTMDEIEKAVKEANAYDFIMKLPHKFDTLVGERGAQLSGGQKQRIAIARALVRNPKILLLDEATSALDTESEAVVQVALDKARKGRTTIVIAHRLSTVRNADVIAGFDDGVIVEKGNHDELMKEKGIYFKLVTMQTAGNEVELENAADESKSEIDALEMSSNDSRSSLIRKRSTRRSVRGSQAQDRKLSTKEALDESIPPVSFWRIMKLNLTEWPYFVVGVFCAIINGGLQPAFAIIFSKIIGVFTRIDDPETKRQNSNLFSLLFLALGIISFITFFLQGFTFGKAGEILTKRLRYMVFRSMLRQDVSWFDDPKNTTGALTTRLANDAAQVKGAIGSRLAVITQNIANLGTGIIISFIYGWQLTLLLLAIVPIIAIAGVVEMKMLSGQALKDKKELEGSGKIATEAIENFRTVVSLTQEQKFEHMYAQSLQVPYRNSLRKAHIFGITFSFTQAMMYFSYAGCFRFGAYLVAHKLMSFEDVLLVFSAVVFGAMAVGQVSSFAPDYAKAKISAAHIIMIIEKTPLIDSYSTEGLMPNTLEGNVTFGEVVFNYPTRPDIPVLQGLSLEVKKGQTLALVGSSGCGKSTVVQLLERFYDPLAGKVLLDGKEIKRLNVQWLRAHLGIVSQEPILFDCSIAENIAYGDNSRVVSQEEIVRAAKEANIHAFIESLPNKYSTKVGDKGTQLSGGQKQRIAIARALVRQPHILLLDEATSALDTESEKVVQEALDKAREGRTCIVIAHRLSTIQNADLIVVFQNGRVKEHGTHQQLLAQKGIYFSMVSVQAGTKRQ

CC[C@@]1(O)C(=O)OCc2c1cc1n(c2=O)Cc2cc3ccccc3nc2-1 [CPT, 20-(S)-camptothecin]
Pc carrier permeability, absorptive ([1]; AP to BL): 8.3 ± 0.3 cm/s × 10^5 | Pm passive permeability, absorptive ([1]; AP to BL, estimated as Peff at 4°C): 0.43 ± 0.05^a cm/s × 10^5 | Pc carrier permeability, secretory ([1]; BL to AP): 2.1 ± 0.1 cm/s × 10^5 | energy of activation (Ea) of efflux ([1]; BL to AP, Arrhenius plot, 4°C to 37°C): ~ 11.3 kcal/mole | Pm passive permeability, secretory ([1]; BL to AP, estimated as efflux Peff at 4°C): 0.35 ± 0.04^a cm/s × 10^5 | Pc for CPT secretory efflux ([1]; BL to AP, weighted nonlinear regression): 2.1 ± 0.1 × 10^-5 cm/s | Km ([1]; read-out: Km, secretory (bisolateral to apical), BL to AP, weighted nonlinear regression): 132 µM and 133 µM | efflux ratio at 105 min [2]: ~1 | Pc carrier permeability, absorptive ([3]; AP to BL): 2.5 ± 0.7 cm/s × 10^5 | Pc carrier permeability, secretory ([3]; BL to AP): 2.0 ± 0.2 cm/s × 10^5 | Km ([3]; read-out: Km, absorptive (apical to bisolateral), AP to BL): 71.5 ± 9.7 µM | Km ([3]; read-out: Km, secretory (bisolateral to apical), BL to AP): 81.3 ± 14.6 µM | degradation on incubation [4]: Minimal degradation | Pc carrier permeability, absorptive ([5]; AP to BL): 2.5 ± 0.4 cm/s × 10^5 | Pc carrier permeability, secretory ([5]; BL to AP): 4.3 ± 0.7 cm/s × 10^5 | Pc carrier permeability, absorptive ([6]; AP to BL): 2.2 ± 0.5 cm/s × 10^5 | Pc carrier permeability, secretory ([6]; BL to AP): 4.1 ± 0.4 cm/s × 10^5 | variability in the area under the curve [7, 12]: 164% | variability in the bioavailability [7, 12]: 10 fold

CCc1c2c(nc3ccc(OC(=O)N4CCC(N5CCCCC5)CC4)cc13)-c1cc3c(c(=O)n1C2)COC(=O)[C@]3(O)CC [CPT-11, irinotecan]
observed variability in the area under the curve [7]: 50%

human P-glycoprotein (PGP) (ABCB1) (Homo sapiens)
Km ([8]; AP to BL): 69.7 ± 7.6 µM | Km ([8]; BL to AP): 36.3 ± 7.5 µM

COc1cc2c(cc1OC)CN(CCc1ccc(NC(=O)c3cccc4c(=O)c5cccc(OC)c5[nH]c34)cc1)CC2 [GF120918]
decrease of CPT secretory permeability in the presence of inhibitor [9]: 52.5% | reduction of CPT efflux ([9]; GF120918 0.4 μM, CPT 10 μM): 2.1 fold | effect of increasing inhibitor concentration on CPT efflux ([9]; GF120918 0.8–1.2 μM, data not shown): not further reduced

COc1cc([C@@H]2c3cc4c(cc3[C@@H](O[C@@H]3O[C@@H]5CO[C@@H](C)O[C@H]5[C@H](O)[C@H]3O)[C@H]3COC(=O)[C@H]23)OCO4)cc(OC)c1O [etoposide]
Km [10]: ~213 µM | decrease of CPT secretory permeability in the presence of inhibitor [9]: 25.6% | reduction of CPT efflux permeability ([9]; etoposide 200 μM, CPT 10 μM): 1.3 fold

CC[C@@]1(O)C(=O)OCc2c1cc1n(c2=O)Cc2cc3c(CN(C)C)c(O)ccc3nc2-1 [TPT, topotecan]
observed variability in the area under the curve [7]: 41%

B1: human multidrug resistance protein 2 (MRP2) (ABCC2) (Homo sapiens) (protein)
chain: MLEKFCNSTFWNSSFLDSPEADLPLCFEQTVLVWIPLGYLWLLAPWQLLHVYKSRTKRSSTTKLYLAKQVFVGFLLILAAIELALVLTEDSGQATVPAVRYTNPSLYLGTWLLVLLIQYSRQWCVQKNSWFLSLFWILSILCGTFQFQTLIRTLLQGDNSNLAYSCLFFISYGFQILILIFSAFSENNESSNNPSSIASFLSSITYSWYDSIILKGYKRPLTLEDVWEVDEEMKTKTLVSKFETHMKRELQKARRALQRRQEKSSQQNSGARLPGLNKNQSQSQDALVLEDVEKKKKKSGTKKDVPKSWLMKALFKTFYMVLLKSFLLKLVNDIFTFVSPQLLKLLISFASDRDTYLWIGYLCAILLFTAALIQSFCLQCYFQLCFKLGVKVRTAIMASVYKKALTLSNLARKEYTVGETVNLMSVDAQKLMDVTNFMHMLWSSVLQIVLSIFFLWRELGPSVLAGVGVMVLVIPINAILSTKSKTIQVKNMKNKDKRLKIMNEILSGIKILKYFAWEPSFRDQVQNLRKKELKNLLAFSQLQCVVIFVFQLTPVLVSVVTFSVYVLVDSNNILDAQKAFTSITLFNILRFPLSMLPMMISSMLQASVSTERLEKYLGGDDLDTSAIRHDCNFDKAMQFSEASFTWEHDSEATVRDVNLDIMAGQLVAVIGPVGSGKSSLISAMLGEMENVHGHITIKGTTAYVPQQSWIQNGTIKDNILFGTEFNEKRYQQVLEACALLPDLEMLPGGDLAEIGEKGINLSGGQKQRISLARATYQNLDIYLLDDPLSAVDAHVGKHIFNKVLGPNGLLKGKTRLLVTHSMHFLPQVDEIVVLGNGTIVEKGSYSALLAKKGEFAKNLKTFLRHTGPEEEATVHDGSEEEDDDYGLISSVEEIPEDAASITMRRENSFRRTLSRSSRSNGRHLKSLRNSLKTRNVNSLKEDEELVKGQKLIKKEFIETGKVKFSIYLEYLQAIGLFSIFFIILAFVMNSVAFIGSNLWLSAWTSDSKIFNSTDYPASQRDMRVGVYGALGLAQGIFVFIAHFWSAFGFVHASNILHKQLLNNILRAPMRFFDTTPTGRIVNRFAGDISTVDDTLPQSLRSWITCFLGIISTLVMICMATPVFTIIVIPLGIIYVSVQMFYVSTSRQLRRLDSVTRSPIYSHFSETVSGLPVIRAFEHQQRFLKHNEVRIDTNQKCVFSWITSNRWLAIRLELVGNLTVFFSALMMVIYRDTLSGDTVGFVLSNALNITQTLNWLVRMTSEIETNIVAVERITEYTKVENEAPWVTDKRPPPDWPSKGKIQFNNYQVRYRPELDLVLRGITCDIGSMEKIGVVGRTGAGKSSLTNCLFRILEAAGGQIIIDGVDIASIGLHDLREKLTIIPQDPILFSGSLRMNLDPFNNYSDEEIWKALELAHLKSFVASLQLGLSHEVTEAGGNLSIGQRQLLCLGRALLRKSKILVLDEATAAVDLETDNLIQTTIQNEFAHCTVITIAHRLHTIMDSDKVMVLDNGKIIECGSPEELLQIPGPFYFMAKEAGIENVNSTKF
Km ([11]; AP to BL): 101.2 ± 17.8 µM | Km ([11]; BL to AP): 65.8 ± 6.7 µM
